The values that follow are results of earlier work, collected in patent US6946461B2, “Imidazolophthalazine derivatives as ligands for GABAA receptors” (Merck Sharp & Dohme Ltd., priority 2000, dated 2005).

Each structure is given as a SMILES string.

For data set [1] the following is noted: in vivo.
A further data set has as its system spatial learning. The note with it: reported by McNamara and Skelton.

As to `COC(=O)c1cc2c(cn1)[nH]c1ccccc12` [β-CCM], the proconvulsant effect result in data set [1] was “proconvulsant”. Also, the “spatial learning in the Morris watermaze” value in the data set on spatial learning is listed as “enhanced spatial learning”.
